Results on one compound are retold here after patent US20090062355A1, “Pharmaceutical Product” (Takeda Pharmaceutical Company Limited, priority 2006, published 2009).

What is called IC50 is the concentration needed to halve the response being measured.

Molecules are shown by their SMILES. Like-named read-outs stand apart in the source and are kept apart here.

What all share (type): cell-based
In experiment [1] the test system is mouse macrophage cell line RAW264.7 cells. Description: Suppressive action on production of mediator from LPS stimulated macrophage. Particulars: LPS 10 ng/ml, overnight culture. The method, then:
A suppressive effect of test compound 1 (compound 72 of Reference Example B66) on the production of various mediators by lipopolysaccharide (LPS), which is a TLR4 agonist, using mouse macrophage cell line RAW264.7 cells was examined. The day before the experiment, the cells were suspended to 5×10^5 cells/mL in RPMI1640 medium supplemented with 10% inactivated fetal bovine serum, plated on a 96 well microplate at 0.2 mL/well and incubated at 37° C., 5% CO2/95% air overnight. The medium was changed to RPMI1640 medium supplemented with 1% inactivated fetal bovine serum, and test compound 1 and LPS (final concentration 10 ng/ml) was added. After overnight culture, cytokine, chemokine, prostaglandin E2 in the culture supernatant was quantified by ELISA, and nitrite ion (stable metabolite of NO) concentration was quantified by a fluorescence method using 2,3-diaminonaphthalene. Test compound 1 was dissolved in N,N-dimethylformamide to 10 mM, diluted with RPMI1640 medium supplemented with 1% inactivated fetal bovine serum to 0.1 mM, further diluted with the medium to 10-fold concentration of the final concentration and 1/10 thereof was added. Test compound 1 suppressed almost all the examined mediator production at an equivalent IC50.

Experiment [2] relates to Peripheral Blood Mononuclear Cells. The experiment can be described thus: Influence on binding of LPS to PBMC (flow cytometry). Particulars: 10 μM; 4° C. 30 min, then labeled LPS 50 ng/mL, 1% human serum, 37° C. 45 min; FIG. 2. The source says:
FIG. 2 is a graph showing the effects of test compound 1, anti-CD14 antibody and anti-CCR5 antibody on the binding of LPS to PBMC. With an average of triplicate measurement values of LPS alone as 100%, % averages of triplicate measurement values of other groups are shown, mean±standard error (Experimental Example 6, results of 4 independent tests using PBMC obtained from the blood of different 4 subjects).
Peripheral Blood Mononuclear Cells were Separated by a conventional method, and reacted with test compound 1 (compound 72 of Reference Example B66), anti-human CD14 monoclonal antibody MEM-18 and anti-human CCR5 monoclonal antibody 2D7 (negative control) at 4° C. for 30 min. The cells were reacted with fluorescence label LPS (E. coli O55:B5, Alexa Fluor® 488-labeled, 50 ng/mL) in the presence of 1% human serum at 37° C. for 45 min. The cells (10,000 cells) were washed and the binding of fluorescence label LPS was examined by flow cytometry.
(In general: In flow cytometry, cells or beads pass a laser one at a time.)

The subject of experiment [3] is mouse macrophage cell line RAW264.7 cells. Description: Inhibitory action on intracellular signal transduction after LPS stimulation (Bioplex phosphorylated protein assay). The conditions noted are these: LPS 10 ng/mL; 1, 3, 10, 20, 30 min; FIG. 1. The source says:
FIG. 1-1 is a graph showing the effect of test compound 1 on phosphorylated protein (ATF2) after LPS addition in mouse macrophage cells. An average of triplicate measurement values is shown, mean±standard error (Experimental Example 5, n=3).
FIG. 1-2 is a graph showing the effect of test compound 1 on phosphorylated protein (JNK) after LPS addition in mouse macrophage cells. An average of triplicate measurement values is shown, mean±standard error (Experimental Example 5, n=3).
FIG. 1-3 is a graph showing the effect of test compound 1 on phosphorylated protein (p38MAPK) after LPS addition in mouse macrophage cells. An average of triplicate measurement values is shown, mean±standard error (Experimental Example 5, n=3).
FIG. 1-4 is a graph showing the effect of test compound 1 on phosphorylated protein (IκBα) after LPS addition in mouse macrophage cells. An average of triplicate measurement values is shown, mean±standard error (Experimental Example 5, n=3). […]
A suppressive effect of test compound 1 (compound 72 of • Reference Example B66) on the production of various cytokines by lipopolysaccharide (LPS), which is a TLR4 agonist, using mouse macrophage cell line RAW264.7 cells was examined. […] The supernatant was recovered, and phosphorylated protein was quantified using Bioplex phosphorylated protein assay (Bio-Rad). […]

As to `CCOC(=O)C1=CCCC[C@H]1S(=O)(=O)Nc1ccc(F)cc1Cl` [test compound 1, ethyl (6R)-6-[(2-chloro-4-fluoroanilino)sulfonyl]-1-cyclohexene-1-carboxylate], the IC50 in experiment [1] (ELISA, read-out: IC50, IL-1α production) was 1.1 nM; in experiment [1] (ELISA, read-out: IC50, IL-6 production), 2 nM; in experiment [1] (ELISA, read-out: IC50, IL-10 production), 1.6 nM; in experiment [1] (ELISA, read-out: IC50, MIP-2 production) it was 7.1 nM; in experiment [1] (ELISA, read-out: IC50, PGE2 production), 4 nM; in experiment [1] (ELISA, read-out: IC50, TNF-α production) it was 3.1 nM. Also, the IC50 in experiment [1] (fluorescence method with 2,3-diaminonaphthalene, read-out: IC50, NO production (nitrite ion)) amounted to 1.8 nM. For the same compound, the “binding of fluorescence label LPS to PBMC” value in experiment [2] is recorded as “completely failed to inhibit”. The “phosphorylated protein after LPS addition (ATF2, JNK, p38MAPK, IκBα, ERK1/2, p90RSK, STAT2, p70 S6 Kinase)” value in experiment [3] is listed as “suppressed phosphorylation of all examined proteins involved in LPS signal transduction”.
